Data published in patent US9914709B2, “Compositions and methods of treating HIV-1 infections using same” (YALE UNIVERSITY, priority 2013, dated 2018).
Like-named read-outs stand apart in the source and are kept apart here. Values belong to the compound of their own block, whether it stands above or below them.

Tests used:
[1] = tested on: HIV-1 K103N/Y181C variant; experiment: microbe, parasite or virus in culture; assay type: cell-based
[2] = tested on: HIV-1 Y181C variant; experiment: microbe, parasite or virus in culture; assay type: cell-based
[3] = physchem; conditions: for increase in S: 48 h; for Aqueous Solubility (S): Table 5, pH 6.5; for solubility at 48 h: 25 °C, thermodynamic from solid
Method: The compounds were dissolved in Britton-Robinson buffer and stirred in vials for 48 hours at 25° C. The pH of the buffer solutions was measured by a Corning General Purpose pH Combination probe (4136L21).
For measurement of aqueous solubility, the pH of the buffer solutions was measured by Corning Combination pH Electrodes (4136L21) pH meter with Ag/AgCl glass electrode. […] An Ika® RCT basic magnetic stirrer was used to mix the two phases.
The equilibrium solubility of the non-ionized form of the samples was determined by the shake flask method. For each reported solubility result, two or three independent shake-flask experiments were carried out in parallel. For each experiment the 5 mg of the solid was added to 5 mL of the buffer in a vial. […] The standards and samples were measured by UV spectrophotometry at the maximum wavelength of the individual compounds.

[4] = tested on: IIIB strain of HIV-1 (wild-type); experiment: Anti-HIV-1 activity, MT-2 cells infected with wild-type HIV-1 (IIIB), MTT method; assay type: cell-based; conditions: for EC50: Human immunodeficiency virus 1, IIIB, MT2, read-out: EC50 WT
[5] = in vitro; conditions: human
[6] = Human immunodeficiency virus 1, MT2, read-out: EC50 K103N/Y181C
[7] = Human immunodeficiency virus 1, MT2, read-out: EC50 Y181C
[8] = Human immunodeficiency virus 1, MT2, read-out: EC50, Y181C variant

SMILES: CC(C)c1cc(F)c(Nc2nc(Nc3ccc(C#N)cc3)nc(OCCCN3CCOCC3)n2)c(F)c1 [Compound 6g, 4-((4-((2,6-difluoro-4-isopropylphenyl)amino)-6-(3-morpholinopropoxy)-1,3,5-triazin-2-yl)amino)benzonitrile]
EC50 [1, 6]: 0.03 µM
EC50 [2, 7]: 0.27 µM

SMILES: Cc1cc(C)c(Nc2cc(OCCCN3CCOCC3)nc(Nc3ccc(C#N)cc3)n2)c(C)c1 [Compound 5b, 4-((4-(mesitylamino)-6-(3-morpholinopropoxy)pyrimidin-2-yl)amino)benzonitrile]
increase in S [3]: 182 fold
Aqueous Solubility (S) [3]: 27.3 µg/mL
EC50 [1, 6]: 0.038 µM
EC50 [2, 8]: 0.48 µM
EC50 [2, 7]: 0.48 µM

SMILES: N#C/C=C/c1cc(F)c(Nc2cc(NCCCN3CCOCC3)nc(Nc3ccc(C#N)cc3)n2)c(F)c1 [JLJ0619, (E)-4-((4-((4-(2-cyanovinyl)-2,6-difluorophenyl)amino)-6-((3-morpholinopropyl)amino)pyrimidin-2-yl)amino)benzonitrile]
EC50 [4]: 0.0045 µM
EC50 [1, 6]: 0.034 µM
EC50 [2, 7]: 0.47 µM
CC50 [5]: 2.2 µM

SMILES: Cc1cc(/C=C/C#N)cc(C)c1Nc1nc(NCCCN2CCOCC2)nc(Nc2ccc(C#N)cc2)n1 [JLJ0596, (E)-4-((4-((4-(2-cyanovinyl)-2,6-dimethylphenyl)amino)-6-((3-morpholinopropyl)amino)-1,3,5-triazin-2-yl)amino)benzonitrile]
EC50 [4]: 0.007 µM
EC50 [1, 6]: 0.068 µM
EC50 [2, 7]: 0.51 µM
CC50 [5]: 1.8 µM

solubility at 48 h ([3]; aqueous buffer): 14.2 µg/mL
increase in S [3]: 100 fold
Aqueous Solubility (S) [3]: 14.2 µg/mL
SMILES: Cc1cc(/C=C/C#N)cc(C)c1Nc1nc(Nc2ccc(C#N)cc2)nc(OCCCN2CCOCC2)n1 [Compound 6d, (E)-4-((4-((4-(2-cyanovinyl)-2,6-dimethylphenyl)amino)-6-(3-morpholinopropoxy)-1,3,5-triazin-2-yl)amino)benzonitrile]

SMILES: Cc1cc(C)c(Nc2nc(Nc3ccc(C#N)cc3)nc(OCCCC3CCNCC3)n2)c(C)c1 [Compound 12b, 4-((4-(mesitylamino)-6-(3-(piperidin-4-yl)propoxy)-1,3,5-triazin-2-yl)amino)benzonitrile]
EC50 [1, 6]: 0.14 µM
EC50 [2, 7]: 1.2 µM

SMILES: Cc1cc(C)c(Nc2nc(Nc3ccc(C#N)cc3)nc(OCCCN3CCOCC3)n2)c(C)c1 [Compound 6b, 4-((4-(mesitylamino)-6-(3-morpholinopropoxy)-1,3,5-triazin-2-yl)amino)benzonitrile]
Aqueous Solubility (S) [3]: 15.3 µg/mL
EC50 ([1]; Human immunodeficiency virus 1, MT2, read-out: EC50, K103N/Y181C variant): 0.031 µM
EC50 [1, 6]: 0.031 µM
EC50 [2, 8]: 0.31 µM
EC50 [2, 7]: 0.31 µM

SMILES: Cc1cc(C)c(Nc2cc(OCCN3CCOCC3)nc(Nc3ccc(C#N)cc3)n2)c(C)c1 [Compound 5a, 4-((4-(mesitylamino)-6-(2-morpholinoethoxy)pyrimidin-2-yl)amino)benzonitrile]
increase in S [3]: 83 fold
Aqueous Solubility (S) [3]: 12.5 µg/mL
EC50 [1, 6]: 0.06 µM
EC50 [2, 8]: 0.7 µM
EC50 [2, 7]: 0.7 µM

SMILES: N#C/C=C/c1cc(F)c(Nc2nc(Nc3ccc(C#N)cc3)nc(OCCCN3CCOCC3)n2)c(F)c1 [Compound 6j, (E)-4-((4-((4-(2-cyanovinyl)-2,6-difluorophenyl)amino)-6-(3-morpholinopropoxy)-1,3,5-triazin-2-yl)amino)benzonitrile]
EC50 [4]: 0.014 µM
EC50 [1, 6]: 0.046 µM
EC50 [2, 7]: 0.63 µM
CC50 [5]: 6.5 µM

SMILES: Cc1cc(C)c(Nc2nc(Nc3ccc(C#N)cc3)nc(OCCC3CCNCC3)n2)c(C)c1 [Compound 12a, 4-((4-(mesitylamino)-6-(2-(piperidin-4-yl)ethoxy)-1,3,5-triazin-2-yl)amino)benzonitrile]
EC50 [1, 6]: 0.042 µM
EC50 [2, 7]: 1 µM

SMILES: N#CCCc1cc(F)c(Nc2nc(Nc3ccc(C#N)cc3)nc(OCCCN3CCOCC3)n2)c(F)c1 [Compound 6i, 4-((4-((4-(2-cyanoethyl)-2,6-difluorophenyl)amino)-6-(3-morpholinopropoxy)-1,3,5-triazin-2-yl)amino)benzonitrile]
EC50 [4]: 0.005 µM
solubility at 48 h ([3]; pH 6.5, aqueous buffer): 25.4 µg/mL
EC50 [1, 6]: 0.02 µM
EC50 [2, 7]: 0.23 µM
CC50 [5]: 27 µM

SMILES: Cc1cc(F)c(Nc2nc(Nc3ccc(C#N)cc3)nc(OCCCN3CCOCC3)n2)c(F)c1 [Compound 6e, 4-((4-((2,6-difluoro-4-methylphenyl)amino)-6-(3-morpholinopropoxy)-1,3,5-triazin-2-yl)amino)benzonitrile]
Aqueous Solubility (S) [3]: 22.9 µg/mL
EC50 [1, 6]: 0.07 µM
EC50 [2, 7]: 0.35 µM

SMILES: COc1nc(Nc2ccc(C#N)c(OCC=C(C)C)c2)nc(OCCN2CCOCC2)n1 [Compound 2j, 4-((4-methoxy-6-(2-morpholinoethoxy)-1,3,5-triazin-2-yl)amino)-2-((3-methylbut-2-en-1-yl)oxy)benzonitrile]
reduction in wild-type potency ([4]; relative to parent lacking the morpholinoalkoxy group (2a; 10a)): 9 fold
activity in the wild-type cell assay less ([4]; than rilpivirine or dapivirine): 100 fold
activity towards the Y181C-containing viral variant [2]: does not show activity

SMILES: Cc1cc(C)c(Nc2nc(Nc3ccc(C#N)cc3)nc(OCCN3CCOCC3)n2)c(C)c1 [Compound 6a, 4-((4-(mesitylamino)-6-(2-morpholinoethoxy)-1,3,5-triazin-2-yl)amino)benzonitrile]
Aqueous Solubility (S) [3]: 4.42 µg/mL
EC50 [1, 6]: 0.11 µM
EC50 [2, 7]: 0.7 µM

SMILES: N#C/C=C/c1cc(F)c(Nc2nc(NCCCN3CCOCC3)nc(Nc3ccc(C#N)cc3)n2)c(F)c1 [JLJ0597, (E)-4-((4-((4-(2-cyanovinyl)-2,6-difluorophenyl)amino)-6-((3-morpholinopropyl)amino)-1,3,5-triazin-2-yl)amino)benzonitrile]
EC50 [4]: 0.0057 µM
EC50 [1, 6]: 0.016 µM
EC50 [2, 7]: 0.075 µM
CC50 [5]: 7 µM

SMILES: Cc1cc(C#N)cc(C)c1Nc1nc(Nc2ccc(C#N)cc2)nc(OCCCN2CCOCC2)n1 [Compound 6c, 4-((4-((4-cyanophenyl)amino)-6-(3-morpholinopropoxy)-1,3,5-triazin-2-yl)amino)-3,5-dimethylbenzonitrile]
Aqueous Solubility (S) [3]: 13.3 µg/mL
EC50 [1, 6]: 0.042 µM
EC50 [2, 7]: 1 µM

SMILES: N#C/C=C/c1cc(F)c(Nc2cc(OCCCN3CCOCC3)nc(Nc3ccc(C#N)cc3)n2)c(F)c1 [Compound 5d, (E)-4-((4-((4-(2-cyanovinyl)-2,6-difluorophenyl)amino)-6-(3-morpholinopropoxy)pyrimidin-2-yl)amino)benzonitrile]
EC50 [4]: 0.0041 µM
EC50 [1, 6]: 0.0071 µM
EC50 [2, 7]: 0.15 µM
CC50 [5]: 18 µM

SMILES: Cc1cc(/C=C/C#N)cc(C)c1Nc1cc(NCCCN2CCOCC2)nc(Nc2ccc(C#N)cc2)n1 [JLJ0618, (E)-4-((4-((4-(2-cyanovinyl)-2,6-dimethylphenyl)amino)-6-((3-morpholinopropyl)amino)pyrimidin-2-yl)amino)benzonitrile]
EC50 [4]: 0.003 µM
EC50 [1, 6]: 0.002 µM
EC50 [2, 7]: 0.017 µM
CC50 [5]: 4.5 µM

SMILES: CCc1cc(F)c(Nc2nc(Nc3ccc(C#N)cc3)nc(OCCCN3CCOCC3)n2)c(F)c1 [Compound 6f, 4-((4-((4-ethyl-2,6-difluorophenyl)amino)-6-(3-morpholinopropoxy)-1,3,5-triazin-2-yl)amino)benzonitrile]
EC50 [1, 6]: 0.05 µM
EC50 [2, 7]: 0.5 µM

SMILES: N#Cc1ccc(Nc2nc(Nc3c(F)cc(C4CC4)cc3F)nc(OCCCN3CCOCC3)n2)cc1 [Compound 6h, 4-((4-((4-cyclopropyl-2,6-difluorophenyl)amino)-6-(3-morpholinopropoxy)-1,3,5-triazin-2-yl)amino)benzonitrile]
EC50 [1, 6]: 0.15 µM
EC50 [2, 7]: 1.1 µM
